Reference: US10004732B2 (Novartis AG, priority 2014, dated 2018)
Counter-ions that a name gives are not always drawn.

Legend:
[1] = target: Vps34 (Homo sapiens, UniProt Q8NEB9); test: Kinase Glo Luminescent Kinase Assay (Kglo), assay C; format: biochemical; settings: read-out: Assay C VPS34 IC50
[2] = Microsomal clearance assay (M); settings: intrinsic clearance in rat liver microsomes
Method: The experiments were performed in 96-well glass plates at 37° C. on an automated Tecan EVO platform. Test compounds at a concentration of 10 mM in pure DMSO were diluted 1:1000 in water to 10 μM. […] Reactions were initiated by the addition of 150 μL of a cofactor solution containing 2 mM NADPH.

[3] = target: T1, PI 3-kinase gamma (Homo sapiens, UniProt P48736); test: TR-FRET Adapta assay, assay E; format: biochemical; settings: read-out: Assay E PI3Kγ IC50
[4] = test system: IL-8-induced neutrophil shape change in human whole blood; test: Whole blood neutrophil shape change assay (L); format: cell-based; settings: Homo sapiens, Neutrophil, IL-8, human whole blood, read-out: Assay L WBSC IC50
[5] = target: T1, PI 3-kinase gamma; test: Cellular U937 AKT assay K2 (HTRF); format: cell-based; settings: U937 cells, K2 format; read-out: Assay K2 PI3Kγ IC50
Method: In assays K1 and K2, the compounds were tested for their ability to inhibit the production of phosphorylated AKT (Protein Kinase B) generated in a PI 3-kinase gamma isoform-dependent process in a U937 human cell line.
Cellular U937 AKT Assay for PI 3-Kinase Gamma (K2)
U937 cells are split every 3-4 days: 5×10^6 cells/flask (175 cm^2) in 40 ml.
Semi-automated preparation of cell lysates: Cells were resuspended in HBSS, seeded (200′000 cells/well/60 μl) into a 384-well plate and incubated in a humidified 37° C., 5% CO2 incubator for 1.5 hours. The compounds were diluted with HBSS and 40 μl were added to the starved cells (except for wells 24 I-P). […] The cells were then incubated for 30 minutes at 37° C. and 5% CO2. Stimulation occurred during 3 minutes by addition of 20 μl MIP1α (final 10 ng/ml, diluted in HBSS) in the incubator. Wells 24 A-H were only stimulated with HBSS.
The stimulation was then stopped by putting the cell plates on ice (filled with cold water). The cells were then centrifuged at 1200 rpm and 4° C. for 3 minutes.
80 μl of supernatant was removed. The cells were again centrifuged at 1200 rpm and 4° C. for 3 minutes. The supernatant was then removed by turning plates upside down and 30 μl of lysis buffer were added. The plate was incubated at room temperature for 30 minutes under shaking. 16 μl were then transferred to a ProxiPlate Plus 384-well. 4 μl of the master mix (each conjugate diluted 1:20 with detection reagent) were added to each well and the plate was kept in the dark at room temperature for 4 hours.

[6] = target: T2, PI 3-kinase delta (Homo sapiens, UniProt O00329); test: TR-FRET Adapta assay, assay F; settings: read-out: Assay F PI3Kδ IC50
Target sequence in this assay (O00329 whole entry): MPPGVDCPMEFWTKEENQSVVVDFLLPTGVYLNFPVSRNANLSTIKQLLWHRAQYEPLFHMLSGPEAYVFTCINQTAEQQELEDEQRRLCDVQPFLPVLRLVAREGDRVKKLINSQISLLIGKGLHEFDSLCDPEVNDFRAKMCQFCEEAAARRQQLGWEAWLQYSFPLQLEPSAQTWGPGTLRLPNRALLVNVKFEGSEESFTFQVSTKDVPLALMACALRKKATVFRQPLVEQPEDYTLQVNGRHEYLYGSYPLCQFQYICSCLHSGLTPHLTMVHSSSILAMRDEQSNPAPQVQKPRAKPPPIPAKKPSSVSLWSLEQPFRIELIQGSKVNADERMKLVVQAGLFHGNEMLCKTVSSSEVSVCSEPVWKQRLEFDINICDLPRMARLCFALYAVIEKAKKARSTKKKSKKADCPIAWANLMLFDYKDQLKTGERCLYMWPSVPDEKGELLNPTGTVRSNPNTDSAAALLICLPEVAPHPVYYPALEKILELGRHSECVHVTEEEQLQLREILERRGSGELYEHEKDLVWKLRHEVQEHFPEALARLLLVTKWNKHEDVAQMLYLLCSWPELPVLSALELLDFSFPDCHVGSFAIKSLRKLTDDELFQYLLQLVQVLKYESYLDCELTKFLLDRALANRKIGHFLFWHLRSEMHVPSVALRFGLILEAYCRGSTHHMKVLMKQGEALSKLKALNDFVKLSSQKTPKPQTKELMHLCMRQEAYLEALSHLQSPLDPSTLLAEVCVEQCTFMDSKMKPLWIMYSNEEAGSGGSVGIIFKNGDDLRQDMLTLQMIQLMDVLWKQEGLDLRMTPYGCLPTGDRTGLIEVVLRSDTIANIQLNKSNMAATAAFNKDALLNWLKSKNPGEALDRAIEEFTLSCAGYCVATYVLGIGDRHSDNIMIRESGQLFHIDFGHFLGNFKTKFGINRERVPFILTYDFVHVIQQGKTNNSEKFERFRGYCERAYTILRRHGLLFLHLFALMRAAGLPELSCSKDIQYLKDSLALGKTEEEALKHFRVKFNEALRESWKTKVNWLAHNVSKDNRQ
Target sequence in this assay (P27986 461-568 partner): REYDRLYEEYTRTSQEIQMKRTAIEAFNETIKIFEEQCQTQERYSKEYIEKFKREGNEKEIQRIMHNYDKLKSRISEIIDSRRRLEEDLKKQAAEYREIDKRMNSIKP

[7] = target: mTOR (Homo sapiens, UniProt P42345); test: Lanthascreen kinase binding assay, assay G; settings: read-out: Assay G mTOR IC50
Method: Lanthascreen™ Kinase Binding Assay for mTOR (G)
Binding of an inhibitor to the kinase competes for binding with the tracer, resulting in a loss of FRET.
50 nL of compound dilutions were dispensed onto white 384-well small volume polystyrene plate.

[8] = target: T1, PI 3-kinase gamma; test: Cellular U937 AKT assay K1 (MSD); format: cell-based; settings: U937 cells, K1 format; read-out: Assay K1 PI3Kγ IC50
[9] = target: PI 4-kinase beta (Homo sapiens, UniProt Q9UBF8); test: Kinase Glo Luminescent Kinase Assay (Kglo), assay D; format: biochemical; settings: read-out: Assay D PI4Kβ IC50
[10] = target: T3, PI 3-kinase alpha (Homo sapiens, UniProt P42336); test: Kinase Glo Luminescent Kinase Assay (Kglo), assay A; format: biochemical; settings: read-out: Assay A PI3Kα IC50
Target sequence in this assay (P42336 whole entry): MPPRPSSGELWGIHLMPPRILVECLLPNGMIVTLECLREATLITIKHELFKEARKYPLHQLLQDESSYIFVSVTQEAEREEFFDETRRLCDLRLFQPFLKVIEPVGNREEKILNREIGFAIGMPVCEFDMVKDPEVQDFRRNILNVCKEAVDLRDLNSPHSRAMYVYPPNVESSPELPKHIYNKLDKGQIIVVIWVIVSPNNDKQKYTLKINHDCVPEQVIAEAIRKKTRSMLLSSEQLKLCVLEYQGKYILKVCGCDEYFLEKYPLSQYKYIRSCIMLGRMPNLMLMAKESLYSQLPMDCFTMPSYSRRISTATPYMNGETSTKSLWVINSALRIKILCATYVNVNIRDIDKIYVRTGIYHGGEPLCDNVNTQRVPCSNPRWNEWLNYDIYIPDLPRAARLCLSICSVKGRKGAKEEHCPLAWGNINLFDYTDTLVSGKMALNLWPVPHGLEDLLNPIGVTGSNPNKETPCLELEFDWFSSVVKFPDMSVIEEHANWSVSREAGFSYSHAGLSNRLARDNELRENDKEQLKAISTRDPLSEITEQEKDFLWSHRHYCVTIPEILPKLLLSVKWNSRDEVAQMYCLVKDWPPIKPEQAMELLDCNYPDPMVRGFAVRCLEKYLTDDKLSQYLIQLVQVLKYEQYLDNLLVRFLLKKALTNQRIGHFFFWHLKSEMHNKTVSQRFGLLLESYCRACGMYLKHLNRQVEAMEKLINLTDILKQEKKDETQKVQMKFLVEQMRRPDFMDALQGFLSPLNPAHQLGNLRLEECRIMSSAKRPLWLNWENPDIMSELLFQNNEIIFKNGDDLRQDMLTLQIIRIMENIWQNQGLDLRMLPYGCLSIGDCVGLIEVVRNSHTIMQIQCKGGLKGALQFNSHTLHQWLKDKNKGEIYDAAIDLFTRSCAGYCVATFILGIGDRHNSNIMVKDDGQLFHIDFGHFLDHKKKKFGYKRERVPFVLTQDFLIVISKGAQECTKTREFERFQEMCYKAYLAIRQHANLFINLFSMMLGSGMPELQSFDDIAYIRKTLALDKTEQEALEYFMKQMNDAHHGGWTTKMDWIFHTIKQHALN

[11] = target: T4, PI 3-kinase beta (Homo sapiens, UniProt P42338); test: Kinase Glo Luminescent Kinase Assay (Kglo), assay B; format: biochemical; settings: read-out: Assay B PI3Kβ IC50
[12] = target: T4, PI 3-kinase beta; test: Cellular assay I1, p-Akt (S473) in Rat-1 cells, Surefire format; format: cell-based; settings: non-asterisked data: version I1 (Surefire format), Rat-1 cells; read-out: Assay I PI3Kβ IC50
[13] = target: T3, PI 3-kinase alpha; test: Cellular assay H1, p-Akt (S473) in Rat-1 cells, Surefire format; format: cell-based; settings: non-asterisked data: version H1 (Surefire format), Rat-1 cells; read-out: Assay H PI3Kα IC50
Target sequence in this assay (P42336 whole entry): as above
Target sequence in this assay (Q63787 whole entry partner): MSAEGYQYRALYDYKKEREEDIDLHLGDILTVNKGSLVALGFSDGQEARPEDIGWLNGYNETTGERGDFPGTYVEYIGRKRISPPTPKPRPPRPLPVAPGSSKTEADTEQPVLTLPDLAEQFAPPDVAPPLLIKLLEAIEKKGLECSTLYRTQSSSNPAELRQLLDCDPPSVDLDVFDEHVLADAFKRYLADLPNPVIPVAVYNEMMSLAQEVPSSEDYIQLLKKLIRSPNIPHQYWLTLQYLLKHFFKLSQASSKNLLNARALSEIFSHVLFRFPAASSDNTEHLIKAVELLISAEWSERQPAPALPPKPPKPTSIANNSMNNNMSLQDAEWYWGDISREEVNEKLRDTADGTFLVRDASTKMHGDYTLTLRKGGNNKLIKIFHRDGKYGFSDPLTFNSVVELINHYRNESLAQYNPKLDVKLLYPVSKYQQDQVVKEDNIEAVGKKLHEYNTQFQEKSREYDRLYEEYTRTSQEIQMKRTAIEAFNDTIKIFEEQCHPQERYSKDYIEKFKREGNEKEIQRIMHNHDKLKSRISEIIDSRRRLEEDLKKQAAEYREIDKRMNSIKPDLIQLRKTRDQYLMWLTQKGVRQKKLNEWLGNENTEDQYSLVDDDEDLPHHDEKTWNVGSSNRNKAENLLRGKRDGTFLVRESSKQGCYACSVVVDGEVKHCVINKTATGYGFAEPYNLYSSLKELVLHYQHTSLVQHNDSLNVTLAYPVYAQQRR

[14] = target: T2, PI 3-kinase delta; test: Cellular assay J1, p-Akt (S473) in Rat-1 cells, Surefire format; format: cell-based; settings: non-asterisked data: version J1 (Surefire format), Rat-1 cells; read-out: Assay J PI3Kδ IC50
Target sequence in this assay (O00329 whole entry): as the sequence (O00329 whole entry) above
Target sequence in this assay (Q63787 whole entry partner): as the sequence (Q63787 whole entry partner) above
From the text: Cellular Assays for PI 3-Kinase Alpha (H1), Beta (I1) and Delta (J1): Surefire Format
AlphaScreen (Amplified Luminescent Proximity Homogeneous Assay, ALPHA, Perkin Elmer) is a non-radioactive bead-based proximity assay technology to study biomolecular interactions in a homogenous microtiter plate format. The brand name SureFire denotes AlphaScreen assays that are adapted to quantify the phosphorylation of endogenous cellular proteins in cell lysates, by using matched antibody pairs, which consist of an anti-phospho-kinase and an anti-kinase antibody. The assay allows characterization of kinase signaling in cells as well as measurement of kinase inhibitor effects.
Using Rat-1 cells stably expressing myr-HA-tagged versions of the human PI3Kdelta, PI3Kalpha, or PI3Kbeta p110 catalytic subunit isoforms, the assay was developed as a two-plate protocol in a 384-well format.
For compound testing, the cells were seeded at a density of 4000 (Rat-1_PI3Kdelta), 7500 (Rat-1_PI3Kalpha), or 6200 (Rat-1_PI3Kbeta) cells in 20 μl complete growth medium into cell culture treated 384-well plates and were grown at 37° C./5% CO2/90% humidity for 24 h. Shortly before compound transfer, the complete medium was removed, 30 μl assay buffer (DMEM high glucose, 1×MEM NEAA, 10 mM HEPES, 2 mM L-glutamine, 0.1% (w/v) BSA) was added and 10 μl of the compound predilutions were transferred to the cells.

T1 sequence (P48736 whole entry): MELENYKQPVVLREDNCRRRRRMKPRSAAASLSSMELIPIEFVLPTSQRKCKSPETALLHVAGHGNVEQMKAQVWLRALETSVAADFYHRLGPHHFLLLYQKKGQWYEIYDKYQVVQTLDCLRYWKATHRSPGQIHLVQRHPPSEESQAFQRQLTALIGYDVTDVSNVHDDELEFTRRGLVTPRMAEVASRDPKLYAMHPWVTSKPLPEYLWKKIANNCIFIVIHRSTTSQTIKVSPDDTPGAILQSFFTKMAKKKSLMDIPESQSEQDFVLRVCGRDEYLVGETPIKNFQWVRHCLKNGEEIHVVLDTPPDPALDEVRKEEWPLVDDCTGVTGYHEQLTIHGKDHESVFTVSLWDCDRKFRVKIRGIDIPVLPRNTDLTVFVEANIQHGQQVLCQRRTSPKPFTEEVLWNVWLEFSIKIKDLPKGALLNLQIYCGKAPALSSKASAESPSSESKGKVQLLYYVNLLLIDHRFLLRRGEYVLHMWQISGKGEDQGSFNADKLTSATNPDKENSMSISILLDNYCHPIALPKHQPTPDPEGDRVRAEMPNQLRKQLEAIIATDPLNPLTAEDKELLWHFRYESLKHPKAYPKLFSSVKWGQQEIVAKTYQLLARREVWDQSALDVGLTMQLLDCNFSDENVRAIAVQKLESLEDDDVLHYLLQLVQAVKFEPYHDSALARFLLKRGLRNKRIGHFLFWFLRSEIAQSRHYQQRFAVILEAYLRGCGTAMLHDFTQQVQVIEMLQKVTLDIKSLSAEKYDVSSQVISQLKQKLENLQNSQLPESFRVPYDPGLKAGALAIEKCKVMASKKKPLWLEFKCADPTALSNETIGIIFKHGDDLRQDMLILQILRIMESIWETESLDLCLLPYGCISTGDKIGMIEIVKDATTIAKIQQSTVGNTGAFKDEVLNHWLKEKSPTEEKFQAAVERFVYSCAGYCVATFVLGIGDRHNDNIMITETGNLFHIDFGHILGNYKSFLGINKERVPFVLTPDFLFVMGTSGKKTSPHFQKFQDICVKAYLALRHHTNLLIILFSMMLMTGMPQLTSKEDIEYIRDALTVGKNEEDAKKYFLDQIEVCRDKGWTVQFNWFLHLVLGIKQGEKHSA
Chain of PI 4-kinase beta (Q9UBF8 whole entry): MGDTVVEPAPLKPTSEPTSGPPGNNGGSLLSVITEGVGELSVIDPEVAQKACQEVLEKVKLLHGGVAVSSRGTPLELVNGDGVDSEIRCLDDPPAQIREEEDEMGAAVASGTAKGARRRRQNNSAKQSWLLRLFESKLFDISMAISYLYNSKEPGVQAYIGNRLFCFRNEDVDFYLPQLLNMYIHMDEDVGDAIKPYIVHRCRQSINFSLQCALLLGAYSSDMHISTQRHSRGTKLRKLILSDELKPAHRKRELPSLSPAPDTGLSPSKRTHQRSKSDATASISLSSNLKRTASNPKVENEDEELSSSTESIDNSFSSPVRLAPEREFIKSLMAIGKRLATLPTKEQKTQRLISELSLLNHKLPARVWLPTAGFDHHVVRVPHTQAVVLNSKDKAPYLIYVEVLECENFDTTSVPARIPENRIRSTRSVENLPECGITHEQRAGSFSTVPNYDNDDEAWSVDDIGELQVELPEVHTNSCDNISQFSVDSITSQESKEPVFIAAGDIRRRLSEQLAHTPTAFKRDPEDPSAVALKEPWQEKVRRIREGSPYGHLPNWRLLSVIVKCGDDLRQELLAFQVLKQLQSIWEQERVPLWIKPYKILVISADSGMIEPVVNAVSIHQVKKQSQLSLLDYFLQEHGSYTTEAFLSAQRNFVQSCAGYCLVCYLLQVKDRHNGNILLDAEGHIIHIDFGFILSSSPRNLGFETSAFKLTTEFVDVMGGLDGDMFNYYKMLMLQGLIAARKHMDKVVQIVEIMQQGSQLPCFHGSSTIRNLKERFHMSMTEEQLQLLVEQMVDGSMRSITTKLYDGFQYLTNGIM

Row | Structure (SMILES) | IC50 [1] | Assay M RLM CI(int) [2] | IC50 [3] | IC50 [4] | IC50 [5] | IC50 [6] | IC50 [7] | IC50 [8] | IC50 [9] | IC50 [10] | IC50 [11] | IC50 [12] | IC50 [13] | IC50 [14]
1 | Cc1ccc(S(=O)(=O)N2CC(C)(O)C2)cc1-c1cnc(N)c(-n2cncn2)n1 [Example 127.46] | > 9100 nM | 34 µL/min/mg | 73 nM | 3770 nM | 546 nM | 720 nM | > 9100 nM | 708 nM | 6900 nM | 1300 nM | > 9100 nM |  |  | 
2 | Cc1ccc(S(=O)(=O)NCC2(CO)COC2)cc1-c1cnc(N)c(-c2cn(C)nc2C)n1 [Example 128, 3-(5-Amino-6-(1,3-dimethyl-1H-pyrazol-4-yl)pyrazin-2-yl)-N-((3-(hydroxymethyl)oxetan-3-yl)methyl)-4-methylbenzenesulfonamide] | > 10000 nM | 22 µL/min/mg | 14 nM | 2990 nM | 201 nM | 100 nM |  | 209 nM | 6800 nM | 150 nM | 500 nM | 9910 nM | > 10000 nM | > 10000 nM
3 | Cc1ccc(S(=O)(=O)NCCC(C)(C)O)cc1-c1cnc(N)c(-c2cnn(C)n2)n1 [Example 85, 3-(5-Amino-6-(2-methyl-2H-1,2,3-triazol-4-yl)pyrazin-2-yl)-N-(3-hydroxy-3-methylbutyl)-4-methylbenzenesulfonamide] | > 10000 nM | 73 µL/min/mg | 21 nM | 497 nM | 65 nM | 120 nM | 7900 nM | 41 nM | > 10000 nM | 90 nM | 1200 nM |  |  | 
4 | Cc1ccc(S(=O)(=O)NCC(C)(C)O)cc1-c1cnc(N)c(-c2cnn(C)c2C)n1 [Example 46, 3-(5-Amino-6-(1,5-dimethyl-1H-pyrazol-4-yl)pyrazin-2-yl)-N-(2-hydroxy-2-methylpropyl)-4-methylbenzenesulfonamide] | > 10000 nM | 24 µL/min/mg | 26 nM | 730 nM | 331 nM | 450 nM | > 10000 nM | 145 nM | > 10000 nM | 220 nM | 820 nM |  |  | 
5 | Cc1ccc(S(=O)(=O)NCC2CNCCO2)cc1-c1cnc(N)c(-c2cn(C)nc2C)n1 (centres unmarked) [Example 128.8, 3-(5-amino-6-(1,3-dimethyl-1H-pyrazol-4-yl)pyrazin-2-yl)-4-methyl-N-(morpholin-2-ylmethyl)benzenesulfonamide] | > 10000 nM | <3.4 µL/min/mg | 21 nM | 1670 nM | 421 nM | 100 nM |  | 751 nM | > 10000 nM | 590 nM | 1800 nM | > 10000 nM | > 3000 nM | > 10000 nM
6 | Cc1ccc(S(=O)(=O)NOC(C)(C)C)cc1-c1cnc(N)c(-n2cncn2)n1 [Example 112.1, 3-(5-Amino-6-(1H-1,2,4-triazol-1-yl)pyrazin-2-yl)-N-(tert-butoxy)-4-methylbenzenesulfonamide] | > 10000 nM |  | 33 nM | 1330 nM | 63 nM | 210 nM | 6000 nM | 91 nM | 1800 nM | 290 nM | 1700 nM | 1470 nM | 800 nM | 380 nM
7 | Cc1ccc(S(=O)(=O)NCC(C)(C)O)cc1-c1cnc(N)c(-n2cnc(CN(C)C)n2)n1 [Example 117, 3-(5-Amino-6-(3-((dimethylamino)methyl)-1H-1,2,4-triazol-1-yl)pyrazin-2-yl)-N-(2-hydroxy-2-methylpropyl)-4-methylbenzenesulfonamide hydrochloride salt] | > 10000 nM | 85 µL/min/mg | 36 nM | 727 nM | 945 nM |  | > 10000 nM | 577 nM | > 10000 nM | 900 nM | > 10000 nM | > 3000 nM | > 10000 nM | > 10000 nM
8 | Cc1ncc(-c2nc(-c3cc(S(=O)(=O)NCC4(O)COC4)ccc3C)cnc2N)s1 [Example 45.11, 3-(5-Amino-6-(2-methylthiazol-5-yl)pyrazin-2-yl)-N-((3-hydroxyoxetan-3-yl)methyl)-4-methylbenzenesulfonamide] | 1600 nM | 43 µL/min/mg | 5 nM | 79 nM | 26 nM | 130 nM |  | 12 nM | 1200 nM | 40 nM | 290 nM |  |  | 
9 | Cc1ccc(S(=O)(=O)NCCN)cc1-c1cnc(N)c(-n2cncn2)n1 [Example 33, N-(2-Amino-ethyl)-3-(5-amino-6-[1,2,4]triazol-1-yl-pyrazin-2-yl)-4-methyl-benzenesulfonamide trifluoroacetic acid salt] | > 10000 nM | 12 µL/min/mg | 47 nM | 742 nM | 622 nM | 780 nM | 1500 nM | 1980 nM | 910 nM | 210 nM | 380 nM |  |  | 

The next lines start with the values.

Row | IC50 [1] | Assay M RLM CI(int) [2] | IC50 [3] | IC50 [4] | IC50 [5] | IC50 [6] | IC50 [7] | IC50 [8] | IC50 [9] | IC50 [10] | IC50 [11] | IC50 [12] | IC50 [13] | IC50 [14] | Structure (SMILES)
10 | > 10000 nM | 375 µL/min/mg | 73 nM | 3560 nM | 84 nM | 850 nM | 9400 nM | 850 nM | 1700 nM | 320 nM | 1000 nM |  |  |  | Cc1ccc(S(=O)(=O)N2CCC(F)C2)cc1-c1cnc(N)c(-n2cncn2)n1 (centres unmarked) [Example 127.2]
11 | 1400 nM | 109 µL/min/mg | 6 nM | 244 nM | 90 nM | 80 nM | 690 nM | 18 nM | 1500 nM | 40 nM | 150 nM | 590 nM | 510 nM | 460 nM | Cc1ccc(S(=O)(=O)NCC(C)(C)O)cc1-c1cnc(N)c(-c2cnc(C3CC3)s2)n1 [Example 21, 3-[5-Amino-6-(2-cyclopropyl-thiazol-5-yl)-pyrazin-2-yl]-N-(2-hydroxy-2-methyl-propyl)-4-methyl-benzenesulfonamide]
12 |  | 112 µL/min/mg | 38 nM | 5560 nM | 163 nM | 330 nM | > 10000 nM | 58 nM | 640 nM | 310 nM | 260 nM | 3010 nM | 5780 nM | 410 nM | Cc1ccc(S(=O)(=O)NCCC(C)(C)O)cc1-c1cnc(N)c(-c2cscn2)n1 [Example 108, 3-(5-Amino-6-(thiazol-4-yl)pyrazin-2-yl)-N-(3-hydroxy-3-methylbutyl)-4-methylbenzenesulfonamide]
13 | 2300 nM | 37 µL/min/mg | 5 nM | 413 nM | 59 nM | 150 nM |  | 22 nM | 1600 nM | 60 nM | 240 nM | > 10000 nM | 7040 nM | > 10000 nM | Cc1ncc(-c2nc(-c3cc(S(=O)(=O)NCC4(CO)COC4)ccc3C)cnc2N)s1 [Example 44, 3-(5-Amino-6-(2-methylthiazol-5-yl)pyrazin-2-yl)-N-((3-(hydroxymethyl)oxetan-3-yl)methyl)-4-methylbenzenesulfonamide]
14 | > 10000 nM | 20 µL/min/mg | 79 nM | 826 nM | 117 nM | 690 nM |  | 249 nM | > 10000 nM | 220 nM | 1900 nM | > 10000 nM | > 10000 nM | > 10000 nM | Cc1ccc(S(=O)(=O)NC[C@H]2COCCN2)cc1-c1cnc(N)c(-c2cn(C)nc2C)n1 [Example 128.7, (S)-3-(5-Amino-6-(1,3-dimethyl-1H-pyrazol-4-yl)pyrazin-2-yl)-4-methyl-N-(morpholin-3-ylmethyl)benzenesulfonamide]
